Molecules are shown by their SMILES.

For test [1], the system named is FAM-MG-36-17 (DNA, aptamer) CGCAGCGCGGCAGACAGTCAGGCTCAGCACGTGGCA
As to the kind of experiment: graphene oxide FRET fluorescence recovery. The following applies: 137 mM NaCl, 2.7 mM KCl, 1 mM CaCl2, 0.5 mM MgCl2; DPBS pH 7.4, room temperature; 10 nM aptamer on GO; compound at twice the MG concentration.

Test [2] has as its system FAM-MG-36-12 (DNA, aptamer) CCATGCGACGGACAGCACGTGTCACCGCGATCAGCC
As to the kind of experiment: graphene oxide FRET fluorescence recovery. The following applies: 137 mM NaCl, 2.7 mM KCl, 1 mM CaCl2, 0.5 mM MgCl2; DPBS pH 7.4, room temperature; 10 nM aptamer on GO; compound at twice the MG concentration.

In test [3] the test system is FAM-MG-76-16-6A (DNA, aptamer) AAAAAAGTTCGTGGTGTGCTGGATGTCCACCCGACAGCCAGTCACGCGCATCGTACAGACCGTGACACATCCAGCAGCACGA
As to the kind of experiment: graphene oxide FRET fluorescence recovery. Conditions: 137 mM NaCl, 2.7 mM KCl, 1 mM CaCl2, 0.5 mM MgCl2; DPBS pH 7.4, room temperature; 10 nM aptamer on GO; compound at twice the MG concentration.

The subject of test [4] is MG-11 (DNA, aptamer) CATGCCCAACGACATGCAGCACGTGGCCATGCACAA
As to the kind of experiment: ITC. The following applies: 137 mM NaCl, 2.7 mM KCl, 1 mM CaCl2, 0.5 mM MgCl2; DPBS pH 7.4, 25 °C; screen with 100 μM candidate and 10 mM MG; weak thermal variation.

The test system of test [5] is MG-21 (DNA, aptamer) CCATGCAGCCAGCGTCCACCGTCCGTACAGTACGTG
As to the kind of experiment: ITC. Conditions: 137 mM NaCl, 2.7 mM KCl, 1 mM CaCl2, 0.5 mM MgCl2; DPBS pH 7.4, 25 °C; screen with 100 μM candidate and 10 mM MG; weak thermal variation.

Test [6] relates to MG-1 (DNA, aptamer) CCGCCACAGGACAGCCAGTCTGATCGCCATGACGAC
As to the kind of experiment: ITC. The following applies: 137 mM NaCl, 2.7 mM KCl, 1 mM CaCl2, 0.5 mM MgCl2; DPBS pH 7.4, 25 °C; screen with 100 μM candidate and 10 mM MG; weak thermal variation.

In test [7] the test system is MG-9 (DNA, aptamer) TCTCGCAACAGCCAGCGTCATGTGACCACGGAACCA
As to the kind of experiment: ITC. Conditions: 137 mM NaCl, 2.7 mM KCl, 1 mM CaCl2, 0.5 mM MgCl2; DPBS pH 7.4, 25 °C; screen with 100 μM candidate and 10 mM MG; weak thermal variation.

The subject of test [8] is MG-5 (DNA, aptamer) CCCCGACAGCCGGCACAATGTGTCTGCCACGGACGT
As to the kind of experiment: ITC. Conditions: 137 mM NaCl, 2.7 mM KCl, 1 mM CaCl2, 0.5 mM MgCl2; DPBS pH 7.4, 25 °C; screen with 100 μM candidate and 10 mM MG; weak thermal variation.

Test [9] concerns MG-13 (DNA, aptamer) ACGCATCGCGAACAGCCGTGCCGTGTCCACGTACAG
As to the kind of experiment: ITC. Conditions: 137 mM NaCl, 2.7 mM KCl, 1 mM CaCl2, 0.5 mM MgCl2; DPBS pH 7.4, 25 °C; screen with 100 μM candidate and 10 mM MG; weak thermal variation.

The test system of test [10] is MG-24 (DNA, aptamer) ACGCACGTACGGCCAGTCATATGCGCACCGCGTTCA
As to the kind of experiment: ITC. The following applies: 137 mM NaCl, 2.7 mM KCl, 1 mM CaCl2, 0.5 mM MgCl2; DPBS pH 7.4, 25 °C; screen with 100 μM candidate and 10 mM MG; weak thermal variation.

In test [11] the test system is MG-15 (DNA, aptamer) CGGCCAGACGACAGCCAGTCACCGGACACGATCAGG
As to the kind of experiment: ITC. The following applies: 137 mM NaCl, 2.7 mM KCl, 1 mM CaCl2, 0.5 mM MgCl2; DPBS pH 7.4, 25 °C; screen with 100 μM candidate and 10 mM MG; weak thermal variation.

For test [12], the system named is MG-23 (DNA, aptamer) CGCTACGACAGACAGCGTCGAGCACACAACGTTGCG
As to the kind of experiment: ITC. The following applies: 137 mM NaCl, 2.7 mM KCl, 1 mM CaCl2, 0.5 mM MgCl2; DPBS pH 7.4, 25 °C; screen with 100 μM candidate and 10 mM MG; weak thermal variation.

Test [13] deals with MG-6 (DNA, aptamer) CGCAACGCGGCAACAGAGCACAGATCGCACAGACTG
As to the kind of experiment: ITC. Conditions: 137 mM NaCl, 2.7 mM KCl, 1 mM CaCl2, 0.5 mM MgCl2; DPBS pH 7.4, 25 °C; screen with 100 μM candidate and 10 mM MG; weak thermal variation.

Test [14] relates to MG-4 (DNA, aptamer) TGCAACACAACAGCCAGTCATGCCGGTGCACAGTCA
As to the kind of experiment: ITC. The following applies: 137 mM NaCl, 2.7 mM KCl, 1 mM CaCl2, 0.5 mM MgCl2; DPBS pH 7.4, 25 °C; screen with 100 μM candidate and 10 mM MG; weak thermal variation.

The subject of test [15] is MG-36-12 (DNA, aptamer) CCATGCGACGGACAGCACGTGTCACCGCGATCAGCC
As to the kind of experiment: ITC. The following applies: 137 mM NaCl, 2.7 mM KCl, 1 mM CaCl2, 0.5 mM MgCl2; DPBS pH 7.4, 25 °C; 2 mM MG into 5 μM aptamer; one-site model.

In test [16] the test system is MG-10 (DNA, aptamer) CGCGCAGCGGCAGACAGTCAGACTGCGACGCACGTT
As to the kind of experiment: ITC. The following applies: 137 mM NaCl, 2.7 mM KCl, 1 mM CaCl2, 0.5 mM MgCl2; DPBS pH 7.4, 25 °C; screen with 100 μM candidate and 10 mM MG; weak thermal variation.

In test [17] the test system is MG-2 (DNA, aptamer) AGCCCGAGCTGCAGCCAGAATGTGCCACGTGTACGT
As to the kind of experiment: ITC. Conditions: 137 mM NaCl, 2.7 mM KCl, 1 mM CaCl2, 0.5 mM MgCl2; DPBS pH 7.4, 25 °C; screen with 100 μM candidate and 10 mM MG; weak thermal variation.

Test [18] concerns MG-18 (DNA, aptamer) CCGCAGCACGGTCGTACAGCAGCTGCCACGGCATCC
As to the kind of experiment: ITC. Conditions: 137 mM NaCl, 2.7 mM KCl, 1 mM CaCl2, 0.5 mM MgCl2; DPBS pH 7.4, 25 °C; screen with 100 μM candidate and 10 mM MG; weak thermal variation.

Test [19] concerns MG-3 (DNA, aptamer) CGAGACACAGTCACGTGCATCCAGTCAGCATGCGTC
As to the kind of experiment: ITC. Conditions: 137 mM NaCl, 2.7 mM KCl, 1 mM CaCl2, 0.5 mM MgCl2; DPBS pH 7.4, 25 °C; screen with 100 μM candidate and 10 mM MG; weak thermal variation.

The subject of test [20] is MG-36-16 (DNA, aptamer) CCACCCGACAGCCAGTCACGCGCATCGTACAGACCG
As to the kind of experiment: ITC. Conditions: 137 mM NaCl, 2.7 mM KCl, 1 mM CaCl2, 0.5 mM MgCl2; DPBS pH 7.4, 25 °C; 2 mM MG into 5 μM aptamer; one-site model.

For test [21], the system named is MG-8 (DNA, aptamer) TGTGCCCACAACTCCAGTCACGTTCGTCCAGCTCAG
As to the kind of experiment: ITC. The following applies: 137 mM NaCl, 2.7 mM KCl, 1 mM CaCl2, 0.5 mM MgCl2; DPBS pH 7.4, 25 °C; screen with 100 μM candidate and 10 mM MG; weak thermal variation.

Test [22] relates to MG-22 (DNA, aptamer) CGCGCACAGACAGCGTCATGGCCACGTACAGTTCCT
As to the kind of experiment: ITC. Conditions: 137 mM NaCl, 2.7 mM KCl, 1 mM CaCl2, 0.5 mM MgCl2; DPBS pH 7.4, 25 °C; screen with 100 μM candidate and 10 mM MG; weak thermal variation.

The test system of test [23] is MG-7 (DNA, aptamer) CGAGCCGAACGAGACGTCCAGTCCGTGCCCACGCAC
As to the kind of experiment: ITC. The following applies: 137 mM NaCl, 2.7 mM KCl, 1 mM CaCl2, 0.5 mM MgCl2; DPBS pH 7.4, 25 °C; screen with 100 μM candidate and 10 mM MG; weak thermal variation.

Test [24] has as its system MG-14 (DNA, aptamer) CACCGCCAGGGACAGCCAGTCACGTAGCCCGGAACG
As to the kind of experiment: ITC. The following applies: 137 mM NaCl, 2.7 mM KCl, 1 mM CaCl2, 0.5 mM MgCl2; DPBS pH 7.4, 25 °C; screen with 100 μM candidate and 10 mM MG; weak thermal variation.

The test system of test [25] is MG-20 (DNA, aptamer) CGCACAGCAAGACAGCCAGTCAACAGCCGCGAATGT
As to the kind of experiment: ITC. The following applies: 137 mM NaCl, 2.7 mM KCl, 1 mM CaCl2, 0.5 mM MgCl2; DPBS pH 7.4, 25 °C; screen with 100 μM candidate and 10 mM MG; weak thermal variation.

Test [26] concerns MG-19 (DNA, aptamer) CGCAGACAGCCAGTCAGGGAGCGTCCAGTCCGACAC
As to the kind of experiment: ITC. Conditions: 137 mM NaCl, 2.7 mM KCl, 1 mM CaCl2, 0.5 mM MgCl2; DPBS pH 7.4, 25 °C; screen with 100 μM candidate and 10 mM MG; weak thermal variation.

The subject of test [27] is MG-36-17 (DNA, aptamer) CGCAGCGCGGCAGACAGTCAGGCTCAGCACGTGGCA
As to the kind of experiment: ITC. The following applies: 137 mM NaCl, 2.7 mM KCl, 1 mM CaCl2, 0.5 mM MgCl2; DPBS pH 7.4, 25 °C; 2 mM MG into 5 μM aptamer; one-site model.

As to `CN(C)c1ccc(C(=C2C=CC(=[N+](C)C)C=C2)c2ccc(N(C)C)cc2)cc1`, the binding entry in [1], in [2] and in test [3] was “no” each time.

In the case of `CN(C)c1ccc(C(=C2C=CC(=[N+](C)C)C=C2)c2ccccc2)cc1`, the binding result in test [4], in test [5], in test [6], in [7], in [8] and in test [9] was “no” in each case. Besides, the binding entry in [10], in test [11], in [12], in [13], in [14] and in test [16] was “no” each time. Besides, the binding entry in test [17], in test [18], in [19], in [21], in test [22] and in [23] was “no” each time. Also, the binding result in test [24], in [25] and in test [26] was “no” throughout. For the same molecule, the dissociation constant Kd in [15] was 169.78 µM; in test [20], 71.94 µM; in test [27] it was 102.46 µM.

Turning to `CN(C)c1ccc(C(c2ccccc2)c2ccc(N(C)C)cc2)cc1`, the binding entry in [1], in test [2] and in test [3] was “no” each time.

For `Cc1cc(C)nc(NS(=O)(=O)c2ccc(N)cc2)n1`, the binding entry in test [1] and in test [2] was “no” in each case.

Take `NN1CC(=O)NC1=O`: the binding entry in [2] is on record as “no”.

For the molecule `NN1CC(CN2CCOCC2)OC1=O` (stereo not shown), the binding entry in test [2] is “no”.

On to `NN1CCOC1=O`, for which the binding result in test [2] is on record as “no”.

On to `NNC(N)=O`, for which the binding entry in test [2] is “no”.

For `Nc1ccc(S(=O)(=O)Nc2ccccn2)cc1`, the binding entry in [2] was “no”.

On to `O=C(N[C@H](CO)[C@H](O)c1ccc([N+](=O)[O-])cc1)C(Cl)Cl`, for which the binding entry in test [1], in test [2] and in test [3] was “no” in each case.

A word on the Kd: it is the free concentration of one partner at which half of the binding sites on the other are occupied at equilibrium, for simple one-to-one binding.

These data come from PMC8953565 (2022).
